Experimental data published in patent US6683077B2, “2-Amino-benzoxazinones for the treatment of viral infections” (G.D. Searle & Co., priority 1996, dated 2004).

Test system: HCMV engineered virus RC256
Experiment: microbe, parasite or virus in culture
Type: cell-based, human cytomegalovirus
Details: Human betaherpesvirus 5, Fibroblast, read-out: Antiviral Activity RC256, first value (EC50)

SMILES | EC50 [µM]
COc1ccc(C[C@H](Nc2nc3ccc(NC(=O)Cc4cccs4)c(C)c3c(=O)o2)C(=O)N2CCCC2)cc1 [Example 11o, N-[2-[[1S-[(4-Methoxyphenyl)methyl]-2-oxo-2-(1-pyrrolidinyl)ethyl]amino]-5-methyl-4-oxo-4H-3,1-benzoxazin-6-yl]thiophene-2-acetamide] | 59
COC(=O)[C@H](Cc1cc(I)c(OC)c(I)c1)Nc1nc2ccc(NC(=O)OC(C)(C)C)c(C)c2c(=O)o1 [Example 6s, N-[6-[[(1,1-Dimethylethoxy)carbonyl]amino]-5-methyl-4-oxo-4H-3,1-benzoxazin-2-yl]-3,5-diiodo-O-methyl-L-tyrosine, methyl ester] | 18
Cc1c(CNC(=O)NC(C)(C)C)ccc2nc(N[C@@H](Cc3ccccc3)C(=O)N(C)Cc3ccccc3)oc(=O)c12 [Example 12e, αS-[[6-[[[[(1,1-Dimethylethyl)amino]carbonyl]amino]methyl]-5-methyl-4-oxo-4H-3,1-benzoxazin-2-yl]amino]-N-methyl-N-(phenylmethyl)benzenepropanamide] | 14
COC(=O)[C@H](Cc1ccc(OC)cc1)Nc1nc2cccc(C)c2c(=O)o1 [Example 1r, N-(5-Methyl-4-oxo-4H-3,1-benzoxazin-2-yl)-O-methyl-L-tyrosine, methyl ester] | 59
Cc1c(NC(=O)N[C@H](C)c2ccccc2)ccc2nc(N[C@H](C)c3ccccc3)oc(=O)c12 [Example 12c, ^6-[[[[(1R)-Phenylethyl]amino]carbonyl]amino]-5-methyl-2-[[(1R)-phenylethyl]amino]-4H-3,1-benzoxazin-4-one] | 17
CC(=O)NCc1ccc2nc(N[C@@H](Cc3ccccc3)C(=O)N(C)Cc3ccccc3)oc(=O)c2c1C [Example 9x, αS-[[6-[(Acetylamino)methyl]-5-methyl-4-oxo-4H-3,1-benzoxazin-2-yl]amino]-N-methyl-N-(phenylmethyl)benzenepropanamide] | 16
Cc1c(CNC(=O)OC(C)(C)C)ccc2nc(N[C@@H](Cc3ccccc3)C(=O)N(C)Cc3cccnc3)oc(=O)c12 [Example 7s, 1,1-Dimethylethyl[[5-methyl-2-[[2-[methyl[(3-pyridinyl)methyl]amino]-1S-(phenylmethyl)-2-oxoethyl]amino]4-oxo-4H-3,1-benzoxazin-6-yl]methyl]carbamate] | 16
COC(=O)[C@H](Cc1ccccc1)Nc1nc2cccc(C)c2c(=O)o1 [Example 1k, N-(5-Methyl-4-oxo-4H-3,1-benzoxazin-2-yl)-L-phenylalanine, methyl ester] | > 100
COc1ccc(C[C@H](Nc2nc3ccc(CNC(=O)C(C)(C)C)c(C)c3c(=O)o2)C(=O)N(C)Cc2ccccc2)cc1 [Example 9l, αS-[[6-[[(2,2-Dimethyl-1-oxopropyl)amino]methyl]-5-methyl-4-oxo-4H-3,1-benzoxazin-2-yl]amino]-4-methoxy-N-methyl-N-(phenylmethyl)benzenepropanamide] | 65
Cc1c(CNC(=O)OCc2ccccc2)ccc2nc(N[C@@H](Cc3ccc(Cl)cc3)C(=O)N(C)Cc3ccccc3)oc(=O)c12 [Example 9t, Phenylmethyl[[2-[[1S-[(4-chlorophenyl)methyl]-2-[methyl(phenylmethyl)amino]-2-oxoethyl]amino]-5-methyl-4-oxo-4H-3,1-benzoxazin-6-yl]methyl]carbamate] | 20
COC(=O)[C@H](Cc1ccccc1)Nc1nc2ccc(NC(=O)OC(C)(C)C)c(C)c2c(=O)o1 [Example 6a, N-[6-[[(1,1-Dimethylethoxy]carbonyl]amino]-5-methyl-4-oxo-4H-3,1-benzoxazin-2-yl]-L-phenylalanine, methyl ester] | 71
Cc1c(CNC(=O)OCCN2CCOCC2)ccc2nc(N[C@@H](Cc3ccccc3)C(=O)N(C)Cc3ccccc3)oc(=O)c12 [Example 18h] | 11
Cc1c(CNC(=O)C=Cc2ccccc2)ccc2nc(N[C@@H](Cc3ccccc3)C(=O)N(C)Cc3ccccc3)oc(=O)c12 [Example 9v, N-Methyl-αS-[[5-methyl-6-[[(1-oxo-3-phenyl-2-propenyl)amino]methyl]-4-oxo-4H-3,1-benzoxazin-2-yl]amino]-N-(phenylmethyl)benzenepropanamide] | 26
COc1ccc(C[C@H](Nc2nc3ccc(NC(=O)OC(C)(C)C)c(C)c3c(=O)o2)C(=O)N2CCOCC2)cc1 [Example 6i, N-[6-[[(1,1-Dimethylethoxy)carbonyl]amino]-5-methyl-4-oxo-4H-3,1-benzoxazin-2-yl]-O-methyl-L-tyrosine, morpholineamide] | 48
COc1ccc(C[C@H](Nc2nc3ccc(CNC(=O)OCCN4CCCCC4)c(C)c3c(=O)o2)C(=O)N(C)Cc2ccccc2)cc1 [Example 18a, 2-(1-Piperidinyl)ethyl[[2-[[1S-[(4-methoxyphenyl)methyl]-2-[methyl(phenylmethyl)amino]-2-oxoethyl]amino]-5-methyl-4-oxo-3,1-benzoxazin-6-yl]methyl]carbamate] | 5
CCOC(=O)Nc1ccc2nc(N[C@@H](Cc3ccc(OC)cc3)C(=O)N(C)Cc3ccccc3)oc(=O)c2c1C [Example 11r, Ethyl[2-[[1S-[(4-methoxyphenyl)methyl]-2-[methyl(phenylmethyl)amino]-2-oxoethyl]amino]-5-methyl-4H-3,1-benzoxazin-6-yl]carbamate] | 12
Cc1c(CNC(=O)CCc2ccccc2)ccc2nc(N[C@@H](Cc3ccccc3)C(=O)N(C)Cc3ccccc3)oc(=O)c12 [Example 9w, N-Methyl-αS-[[5-methyl-6-[[(1-oxo-3-phenylpropyl)amino]-methyl]-4-oxo-4H-3,1-benzoxazin-2-yl]amino]-N-(phenylmethyl)benzenepropanamide] | 13
COC(=O)[C@H](C)Nc1nc2ccc(NS(=O)(=O)c3ccccc3)c(C)c2c(=O)o1 [Example 13a] | 60
COc1ccc(C[C@H](Nc2nc3ccc(N(C)C)c(C)c3c(=O)o2)C(=O)N(C)Cc2ccccc2)cc1 [Example 16a, αS-[[6-(Dimethylamino)-5-methyl-4-oxo-4H-3,1-benzoxazin-2-yl]amino]-4-methoxy-N-methyl-N-(phenylmethyl)benzenepropanamide] | 15
COC(=O)[C@@H](C)Nc1nc2cccc(C)c2c(=O)o1 [Example 1c, N-(5-Methyl-4-oxo-4H-3,1-benzoxazin-2-yl)-D-alanine, methyl ester] | > 100
COC[C@H](Cc1ccccc1)Nc1nc2cccc(C)c2c(=O)o1 [Example 1p, 2-[[2-Methoxy-(1S)-(1-phenylmethyl)ethyl]amino]-5-methyl-4H-3,1-benzoxazin-4-one] | 38
Cc1c(CNS(C)(=O)=O)cc(Br)c2nc(N[C@@H](Cc3ccccc3)C(=O)N(C)Cc3ccccc3)oc(=O)c12 [Example 15j, αS-[[8-Bromo-5-methyl-6-[[(methylsulfonyl)amino]methyl]-4-oxo-4H-3,1-benzoxazin-2-yl]amino]-N-methyl-N-(phenylmethyl)benzenepropanamide] | 13
Cc1c(NC(=O)OC(C)(C)C)ccc2nc(N[C@H](C)c3ccccc3)oc(=O)c12 [Example 6n, 6-[[(1,1-Dimethylethoxy)carbonyl]amino]-5-methyl-2-[[(1R)-phenylethyl]amino]-4H-3,1-benzoxazin-4-one] | 10
